Source: paper PMC5474949 (Journal of medicinal chemistry, 2016)
“Also recorded” adds a separate entry of the source.

Tests used:
MDCK-mdr1 cells = experiment: MDCK-mdr1 permeability assay; assay type: in vitro ADME, canine; conditions: 10 μM apical, 1 h, 37 °C, pH 7.4
[1] = system: neuropathy induced by unilateral sciatic nerve entrapment (SNE); experiment: SNE-induced mechanical allodynia; assay type: in vivo, rat; conditions: SNE rats
[2] = system: acute nociception in naïve rats; experiment: Tail-flick test; assay type: in vivo, rat
central CB1Rs = experiment: Tetrad CNS side effect tests; assay type: in vivo, rat; conditions: naïve rats; for CNS side effects in catalepsy, rotarod, hypothermia assays: ip, 0.3 mg/kg and 3-fold higher doses; for CNS side effects in catalepsy, motor incoordination, hypothermia assays: oral, up to 10 mg/kg
[3] = Pharmacokinetics: plasma, brain and CSF levels; conditions: rat, 0.3 mg/kg ip, ~75 min
[4] = system: antiallodynic effect of 2-5u in the SNE neuropathy; experiment: Pretreatment with CB1R/CB2R blockers before 2-5u in SNE rats; assay type: in vivo, rat; conditions: blocker (2 and 3: 3 mg/kg ip) 30 min before 2-5u 0.6 mg/kg
hCB1R = hCB1R (Homo sapiens, UniProt P21554); experiment: CB1R radioligand displacement binding assay; conditions: for Ki: read-out: Ki (nM) hCB1R vs CP55,940, [3H]-CP55940 displacement, Cheng–Prusoff
hCB1R, sequence (P21554 whole entry): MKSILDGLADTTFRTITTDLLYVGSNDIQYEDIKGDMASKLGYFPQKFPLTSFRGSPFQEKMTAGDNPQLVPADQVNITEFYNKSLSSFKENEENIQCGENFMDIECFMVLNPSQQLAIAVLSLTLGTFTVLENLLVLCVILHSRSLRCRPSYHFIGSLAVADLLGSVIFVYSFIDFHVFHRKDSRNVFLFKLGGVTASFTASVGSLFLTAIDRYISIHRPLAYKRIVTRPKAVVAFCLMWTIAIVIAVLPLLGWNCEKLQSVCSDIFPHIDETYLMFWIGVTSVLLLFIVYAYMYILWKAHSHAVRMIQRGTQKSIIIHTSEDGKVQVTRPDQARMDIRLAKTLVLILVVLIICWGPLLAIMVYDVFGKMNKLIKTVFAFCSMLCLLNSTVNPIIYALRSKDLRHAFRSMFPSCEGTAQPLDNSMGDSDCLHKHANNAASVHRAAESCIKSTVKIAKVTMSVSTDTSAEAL

## CCCCCn1cc(C(=O)c2ccc(C(=O)OC)c3ccccc23)c2ccccc21 [1-4a, Methyl 4-[(1-Pentyl-1H-indol-3-yl)carbonyl]naphthalene-1-carboxylate]
MDCK-mdr1 cells
  MDCK B/A ratio (basolateral:apical): 0.00

## CCCCCn1cc(C(=O)c2cccc3ccccc23)c2c(F)cccc21 [1-4h, 4-Fluoro-3-[(naphthalen-1-yl)carbonyl]-1-pentyl-1H-indole]
MDCK-mdr1 cells
  MDCK B/A ratio (basolateral:apical): 0.000

## CCCCCn1cc(C(=O)c2cccc3ccccc23)c2cc(F)ccc21 [1-4i, 5-Fluoro-3-[(naphthalen-1-yl)carbonyl]-1-pentyl-1H-indole]
MDCK-mdr1 cells
  MDCK B/A ratio (basolateral:apical): 0.000

## CCCCCn1cc(C(=O)c2cccc3ccccc23)c2ccc(F)cc21 [1-4j, 6-Fluoro-3-[(naphthalen-1-yl)carbonyl]-1-pentyl-1H-indole]
MDCK-mdr1 cells
  MDCK B/A ratio (basolateral:apical): 0.000

## CCCCCn1cc(C(=O)c2cccc3ccccc23)c2cccc(F)c21 [1-4k, 7-Fluoro-3-[(naphthalen-1-yl)carbonyl]-1-pentyl-1H-indole]
MDCK-mdr1 cells
  MDCK B/A ratio (basolateral:apical): 0.000

## COC(=O)c1ccc(C(=O)c2cn(CCN3CCOCC3)c3ccccc23)c2ccccc12 [1-4o]
MDCK-mdr1 cells
  MDCK B/A ratio (basolateral:apical): 1.02

## C1=C(CCN2CCOCC2)c2ccccc2/C1=C/c1cccc2ccccc12 [2-5a, 4-{2-[(1E)-1-(Naphthalen-1-ylmethylidene)-1H-inden-3-yl]ethyl}-morpholine]
[1]; 0.3 mg/kg ip, 0.3 mg/kg
  suppression of SNE-induced mechanical allodynia: much smaller effect; also recorded: considerably smaller increases in thresholds than 2-5u or 2-5j

## COc1ccc(/C=C2\C=C(CCN3CCOCC3)c3ccccc32)c2ccccc12 [2-5j, 4-{2-[(1E)-1-[(4-Methoxynaphthalen-1-yl)methylidene]-1H-inden-3-yl]ethyl}morpholine]
[1]; 0.3 mg/kg ip, 0.3 mg/kg
  suppression of SNE-induced mechanical allodynia: large, reversible decreases in mechanical allodynia; also recorded: complete suppression of mechanical allodynia symptoms
[2]; oral
  effect in tail-flick assay: small effects in the tail-flick assay
MDCK-mdr1 cells
  MDCK B/A ratio (basolateral:apical): 0.000
Central CB1Rs
  CNS side effects in catalepsy, rotarod, hypothermia assays: no effect in the assays of CNS CB1R activation
  CNS side effects in catalepsy, motor incoordination, hypothermia assays: relative lack of side effects in the catalepsy, motor incoordination, and hypothermia assays

## CCc1ccc(/C=C2\C=C(CCN3CCOCC3)c3ccccc32)c2ccccc12 [2-5t, 4-{2-[(1E)-1-[(4-Ethylnaphthalen-1-yl)methylidene]-1H-indenyl]-ethyl}morpholine]
[2]; oral
  effect in tail-flick assay: small effects in the tail-flick assay
MDCK-mdr1 cells
  MDCK B/A ratio (basolateral:apical): 0.000
Central CB1Rs
  CNS side effects in catalepsy, motor incoordination, hypothermia assays: relative lack of side effects in the catalepsy, motor incoordination, and hypothermia assays

## CCCc1ccc(/C=C2\C=C(CCN3CCOCC3)c3ccccc32)c2ccccc12 [2-5u, 4-{2-[(1E)-1-[(4-Propylnaphthalen-1-yl)methylidene]-1H-inden-3-yl]ethyl}morpholine]
[3]
  CNS penetration (plasma, brain, CSF samples): minimal penetration of 2-5u into the CNS
[1]; 0.3 mg/kg ip, 0.3 mg/kg
  suppression of SNE-induced mechanical allodynia: large, reversible decreases in mechanical allodynia; also recorded: ipsilateral thresholds are increased to levels of predrug contralateral thresholds; also recorded: complete suppression of mechanical allodynia symptoms
[1]; 3 mg/kg oral, 3 mg/kg
  suppression of SNE-induced mechanical allodynia: reversibly suppresses SNE neuropathy symptoms; also recorded: effective in suppressing neuropathy symptoms after oral administration; also recorded: complete suppression of allodynia symptoms at peak effect
[2]; ip (2-5u 0.3 mg/kg)
  effect in tail-flick assay: small effect in the tail-flick assay; also recorded: small analgesic effect; also recorded: small effects on acute nociception
[2]; oral
  effect in tail-flick assay: small effects in the tail-flick assay
MDCK-mdr1 cells
  MDCK B/A ratio (basolateral:apical): 0.000
Central CB1Rs; 0.3 mg/kg
  CNS side effects in catalepsy, rotarod, hypothermia assays: lack effects in the catalepsy, rotarod, or hypothermia assays; also recorded: no effect in the assays of CNS CB1R activation
Central CB1Rs
  CNS side effects in catalepsy, motor incoordination, hypothermia assays: relative lack of side effects in the catalepsy, motor incoordination, and hypothermia assays; also recorded: no significant effect on central CB1Rs

## CCCCCC1=C/C(=C\c2cccc3ccccc23)c2ccccc21 [2-7a, 1-{[(1E)-3-pentyl-1H-inden-1-ylidene]methyl}naphthalene, reference compound]
MDCK-mdr1 cells
  MDCK B/A ratio (basolateral:apical): 0.04

## CCCCCCC(C)(C)c1cc(O)c2c(c1)OC(C)(C)[C@@H]1CC=C(CO)C[C@@H]21 [compound 1, reference compound]
Central CB1Rs; 0.01 mg/kg ip, positive control, 0.01 mg/kg
  CNS side effects in catalepsy (ring), core temperature, rotarod tests: strong CNS side effects; also recorded: profound CNS side effects

## Cc1c(C(=O)NN2CCCCC2)nn(-c2ccc(Cl)cc2Cl)c1-c1ccc(Cl)cc1 [compound 2]
[4]
  effect of pretreatment on antiallodynic effect of 2-5u: completely blocked the antiallodynic effect of 2-5u; also recorded: completely blocks the response to 2-5u

## (1E)-3-hexyl-1-(2-phenylethylidene)-1H-indene [2-7c]
hCB1R
  Ki: 4410 nM
hCB1R; versus 2-7a (pentyl)
  loss of hCB1R affinity versus 2-7a: 256 fold
hCB1R; versus naphthylidene analogue 2-7b (n-hexyl)
  loss of hCB1R affinity versus 2-7b: 10 fold

## N-(3-Carboxybutyl)-3-(1-naphthoyl)-1H-indole [1-4g]
hCB1R
  Ki: > 10000 nM

## N-(3-Ethoxycarbonylbutyl)-3-(1-naphthoyl)-1H-indole [1-4e]
hCB1R
  Ki: 1470 nM
